Values quoted from earlier work as cited in patent US8734864B2, “Methods for increasing human growth hormone levels” (Quality IP Holdings, LLC, priority 2012, dated 2014).

Legend:
hGH secretion = settings: for Increase in hGH (in words): other amino acids, literature
[1] = subcutaneous injection of 0.06 IU, GH deficient subjects

## N=C(N)NCCC[C@H](N)C(=O)O [arginine]
hGH secretion; 30 g, males
  Elevation of serum hGH levels: 8.6 fold
hGH secretion; intravenous infusion of 183 mg/kg body weight, females
  Increase of hGH levels: > 20 fold

## HGH: human growth hormone given by subcutaneous injection to GH deficient subjects (literature)
[1]
  Mean levels of GH reached: 0.4 ng/mL

## N[C@@H](Cc1ccccc1)C(=O)O [phenylalanine]
hGH secretion
  Increase in hGH (in words): marked increases in hGH

## NCCCC[C@H](N)C(=O)O [lysine]
hGH secretion
  Increase in hGH (in words): marked increases in hGH

## NCCC[C@H](N)C(=O)O [ornithine]
hGH secretion
  Increase in hGH (in words): marked increases in hGH

## N[C@@H](Cc1c[nH]cn1)C(=O)O [histidine]
hGH secretion
  Increase in hGH (in words): marked increases in hGH

## CSCC[C@H](N)C(=O)O [methionine]
hGH secretion
  Increase in hGH (in words): marked increases in hGH
